According to the NIST ThermoML archive (doi:10.1021/je900550v):

Settings: 101.33 kPa, Liquid; for mass density: Vibrating tube method; for speed of sound: Pulse-echo method

CCC(=O)[O-].C[NH2+]CCO [2-hydroxy-N-methylethanaminium propionate]
Settings	mass density [kg/m3]	speed of sound [m/s]	viscosity [mPa·s]
293.15 K	1074.5	–	–
293.4 K	1074.34	1704.1	–
293.65 K	1074.17	1703.4	–
293.9 K	1074.01	1702.6	–
294.15 K	1073.84	1701.9	–
294.4 K	1073.68	1701.1	–
294.65 K	1073.51	1700.4	–
294.9 K	1073.35	1699.7	–
295.15 K	1073.18	1698.9	–
295.4 K	1073.02	1698.2	–
295.65 K	1072.86	1697.4	256.14
295.9 K	1072.7	1696.7	–
296.15 K	1072.54	1695.9	–
296.4 K	1072.38	1695.2	–
296.65 K	1072.22	1694.5	–
296.9 K	1072.07	1693.7	–
297.15 K	1071.9	1693	–
297.4 K	1071.74	1692.2	–
297.65 K	1071.59	1691.5	–
297.9 K	1071.43	1690.7	–
298.15 K	1071.27	1690	215.06
298.4 K	1071.11	1689.3	–
298.65 K	1070.95	1688.5	–
298.9 K	1070.79	1687.8	–
299.15 K	1070.63	1687	–
299.4 K	1070.47	1686.3	–
299.65 K	1070.31	1685.5	–
299.9 K	1070.15	1684.8	–
300.15 K	1069.99	1684.1	–
300.4 K	1069.83	1683.3	–
300.65 K	1069.67	1682.6	182.88
300.9 K	1069.51	1681.8	–
301.15 K	1069.35	1681.1	–
301.4 K	1069.18	1680.3	–
301.65 K	1069.02	1679.6	–
301.9 K	1068.86	1678.9	–
302.15 K	1068.69	1678.1	–
302.4 K	1068.53	1677.4	–
302.65 K	1068.38	1676.7	–
302.9 K	1068.21	1675.9	–
303.15 K	1068.05	1675.2	158.24
303.4 K	1067.89	1674.5	–
303.65 K	1067.73	1673.7	–
303.9 K	1067.57	1673	–
304.15 K	1067.4	1672.3	–
304.4 K	1067.24	1671.5	–
304.65 K	1067.08	1670.8	–
304.91 K	1066.92	1670.1	–
305.15 K	1066.76	1669.3	140.88
305.4 K	1066.59	1668.6	–
305.65 K	1066.42	1667.9	–
305.9 K	1066.27	1667.1	–
306.15 K	1066.1	1666.4	–
306.4 K	1065.94	1665.7	–
306.65 K	1065.77	1664.9	–
306.9 K	1065.61	1664.2	–
307.15 K	1065.45	1663.5	–
307.4 K	1065.28	1662.7	–
307.65 K	1065.12	1662	–
307.9 K	1064.95	1661.2	–
